Here are results for one compound from patent publication US20220273590A1, “COMPOUNDS FOR PREVENTION AND TREATMENT OF POST-OPERATIVE COGNITIVE DYSFUNCTION” (ABREXA PHARMACEUTICALS, INC., priority 2019, published 2022).

Each structure is given as a SMILES string.

Test [1] concerns animal model of POCD. Put plainly: Morris Water Maze (MWM) after abdominal surgery. Format: in vivo, Wistar rats. Conditions: chronically treated rats. The protocol: Male Wistar rats (˜350 g) were randomly divided into 4 experimental groups; non-surgery; control abdominal surgery; surgery+acute J147 treatment (7 mg/rat by gavage, 4-5 hours before surgery); surgery+chronic J147 (500 mg/kg food, 1 week before surgery until the end of the study). Timed blood samples were collected. Days 9-11 post surgery, general behavior (Open field: OF) and cognitive performance (Novel Object/Novel Location Recognition: NOR/NLR; Morris Water Maze: MWM) were tested. Day 14, rats were sacrificed and blood and brain tissue were collected for further analyses. (Neuro)inflammation was examined by circulating cytokine levels and microglia activation in the brain.
Abdominal surgery was performed as described previously by Hovens et al., 2014. Rats were anaesthetized using sevoflurane (±2.5% in air/O2=2/1) and received 0.01 mg/kg buprenorphine s.c. A heating blanket was used to preserve body temperature. An incision was made along the linea alba and the intestines were exteriorised. […]
The second day started with a probe trial to assess early spatial memory. […] We measured how often the rat crossed the place of the platform and how much time he spent in the target quadrant. […]

The subject of test [2] is animal model of POCD. Put plainly: Open Field test after abdominal surgery. Format: in vivo, Wistar rats. The protocol:
Male Wistar rats (˜350 g) were randomly divided into 4 experimental groups; non-surgery; control abdominal surgery; surgery+acute J147 treatment (7 mg/rat by gavage, 4-5 hours before surgery); surgery+chronic J147 (500 mg/kg food, 1 week before surgery until the end of the study). Timed blood samples were collected. Days 9-11 post surgery, general behavior (Open field: OF) and cognitive performance (Novel Object/Novel Location Recognition: NOR/NLR; Morris Water Maze: MWM) were tested. Day 14, rats were sacrificed and blood and brain tissue were collected for further analyses. (Neuro)inflammation was examined by circulating cytokine levels and microglia activation in the brain. Abdominal surgery was performed as described previously by Hovens et al., 2014. Rats were anaesthetized using sevoflurane (±2.5% in air/O2=2/1) and received 0.01 mg/kg buprenorphine s.c. A heating blanket was used to preserve body temperature. An incision was made along the linea alba and the intestines were exteriorised. The upper mesenteric artery was isolated from surrounding tissue and clamped for a period of 30 minutes during which the intestines and surgical wound were covered with gauze soaked in saline, to prevent dehydration. During this time the animals were equipped with an indwelling jugular vein catheter to mimic insertion of a venous line in patients and allow timed blood sampling. For that, an incision was made at the subclavical region, the jugular vein was freed from surrounding tissue and a catheter was introduced and advanced into the vena cava, just above the right atrium. The other end of the catheter was guided subcutaneously to the head, and fixated on the skull with dental cement. The catheter was filled with PVP dissolved in heparin solution and closed with a plastic plug. After subsequent removal of the mesenteric artery clamp, the intestines were gently placed back and the abdominal wall and skin were closed separately by sutures. Clamping and reperfusion were visually verified by absence or presence of pulsation in the mesenteric artery distal to the clamp site. From induction to recovery, the procedure takes approximately 60 minutes. Post-operatively, the animals were allowed to recover and subsequently were housed individually. Rats were weighed daily at the last hour of the dark period. Maximal weight loss within the first 5 days post-surgery was taken as measure of experienced severity of surgery. Behavioral tests were performed in the dark (active) period of the rats. […] The movement as well as location of the rat was recorded as time in corner, walls and center, number of visits in the center and the distance walked, and analyzed with Ethovision (Noldus, the Netherlands). Rearing behavior was analyzed by Eline. […]

As for `COc1cccc(/C=N/N(C(=O)C(F)(F)F)c2ccc(C)cc2C)c1` [J147], in test [1], the “spatial and reversal learning (MWM), effect of treatment” value is “not affected”; the “spatial memory in the MWM” value is reported as “significantly improved spatial memory”. Also, the “Open field: effect of treatment on time in the center area or distance walked” value in test [2] (acute or chronic J147, surgery rats) is reported as “no significant effects”. In test [2] (surgery + chronic J147), the “Open field: rearing behavior” value is listed as “significantly more rearing behavior” and the “Open field: visits to the center area” value was “significantly more often”. Moreover, the “Open field: time in the center” value in test [2] (surgery + chronic J147, versus the other groups) was “tend to spend more time in the center”.
